We go through two molecules from PMC9668969 (Nature Communications, 2022).

Values joined by “and” are separate entries in the source; they are usually repeats but may differ in a detail not shown here. Equal values may be shown once.

For one assay, the system named is ELIC R117A. Kind of assay: Asymmetric liposome stopped-flow Tl+ flux assay, mutant. Format: biochemical, Erwinia chrysanthemi. The following applies: 25 mol% outer leaflet POPG, 10 mM propylamine. Here is the method:
We next tested the effect of mutations that directly interact with the phospholipid in the ELIC5 CA structure (R117, T259), or are near this site and previously shown to interact with cardiolipin (S202, R318A, T259A and W206F) (Fig. 6a)[14]. The mutations were tested as for WT by examining the effect of 25 mol% outer leaflet POPG in paired (no exchange versus exchange) samples (Supplementary Fig. 15). […] Despite the mutations having various effects on ELIC agonist responses, comparison of no exchange and exchange samples enabled assessment of the effect of POPG.
The fluorescence sequential-mixing stopped-flow liposomal flux measurements were carried using an SX20 stopped-flow spectrofluorometer (Applied Photophysics) and Pro-Data SX software[13],[30]. […]
Using propylamine as the agonist, the assay and analysis was carried out as previously described[13],[30]. […] After a variable delay of 10 ms to 25 s, the sample was then mixed 1:1 with a quenching buffer (90 mM NaNO3, 50 mM TlNO3, 10 mM HEPES, pH 7), and ANTS fluorescence (ex. 360 nm, fluorescence above 420 nm) was recorded for 1 s. […] The time course of desensitization was also fit to a double exponential and a weighted time constant was calculated as was done for the patch-clamp data using Origin 2019b. […]
Acceptor liposomes were prepared as described in the Stopped-flow fluorescence recordings section until completion of the extrusion step. […]

Another assay has as its system WT ELIC. Kind of assay: Tryptophan stopped-flow fluorescence measurements (rapid mixing with agonist, DDM). The following applies: for Normalized change in TRP fluorescence: single experiments. In kind it is biochemical, Erwinia chrysanthemi. Here is the method:
To measure the tryptophan (Trp) fluorescence emission of ELIC, WT or W206F ELIC was diluted to 3 ml (0.02 mg/ml) and an emission spectrum was collected in a quartz fluorescence cell using a Fluoromax Plus Spectrofluorometer (Horiba Scientific). Excitation was set at 295 nm and an emission spectrum was collected from 320 to 380 nm. Trp fluorescence measurements with rapid mixing of agonist was carried out using the SX20 stopped-flow spectrofluorometer, outfitted with a 295 nm LED excitation source. Purified ELIC was diluted to 0.1 mg/ml in Trp Stopped-flow Buffer A (10 mM Tris pH 7.5, 100 mM NaCl, 0.05% DDM). A single mixing experiment was performed by mixing ELIC with equal volumes of Buffer A + propylamine. Propylamine was prepared at varying concentrations at 2x the final concentration. The instrument dead time was ~1 ms, enabling capture of most of the time course of change in Trp fluorescence. The time course of decrease in Trp fluorescence after rapid mixing with propylamine was fit to a single exponential to obtain a time constant for the rate of decrease and a measure of the extent of decrease. All replicates were taken from distinct samples.

As for `CCCCCCCC/C=C\CCCCCCCC(=O)OC(COC(=O)CCCCCCCCCCCCCCC)COP(=O)(O)OCC(O)CO` (stereo not drawn) [POPG, 1-palmitoyl-2-oleoyl-phosphatidylglycerol], in the assay on ELIC R117A, the “POPG modulation (peak response and desensitization)” value was “both effects of POPG (increased peak response and decreased desensitization) are abolished”.

With `CCCN` [propylamine], in the assay on WT ELIC (10 mM propylamine, DDM), the “time constant of TRP fluorescence decrease” value turned out to be 9.9 ± 0.6 ms. The “Normalized change in TRP fluorescence, Average” value in the assay with WT ELIC (DDM, Propylamine 0.3 mM) is recorded as 0.01079; in the assay with WT ELIC (DDM, Propylamine 1 mM) it was 0.08703; in the assay with WT ELIC (DDM, Propylamine 3 mM), 0.49; in the assay on WT ELIC (DDM, Propylamine 10 mM), 0.7765; in the assay on WT ELIC (DDM, Propylamine 30 mM), 0.9154; in the assay with WT ELIC (DDM, Propylamine 100 mM) it was 1. Also, the “Normalized change in TRP fluorescence” value with WT ELIC (DDM, Propylamine 3 mM) is 0.3909 and 0.6901 and 0.389; in the assay with WT ELIC (DDM, Propylamine 10 mM), 0.6381 and 0.8944 and 0.797; in the assay on WT ELIC (DDM, Propylamine 30 mM) it was 0.9392 and 0.8561 and 0.951; with WT ELIC (DDM, Propylamine 100 mM) it was 1. The “Hill n of normalized change in TRP fluorescence” value in the assay with WT ELIC (ELIC in DDM) is listed as 1.6 ± 0.3. Further, the EC50 in the assay on WT ELIC (ELIC in DDM, Hill fit, read-out: EC50 of normalized change in TRP fluorescence) was 4.3 ± 0.8 mM. In addition, the “rate of decrease in tryptophan fluorescence relative to channel opening (fold faster)” value in the assay on WT ELIC (vs Tl+ flux in 2:1:1 or POPC liposomes) is reported as 2–4 ×.
